# According to patent publication US9616051B2, “Drug targets to overcome de novo drug-resistance in multiple myeloma” (H. Lee Moffitt Cancer Center and Research Institute, Inc., priority 2008, dated 2017):
# “Also recorded” adds a separate entry of the source. Where two headings read alike, the source gives them in different places.
# Assays:
# topo IIα [1] = biological target: T1, topo IIα (Homo sapiens, UniProt P11388); assay: Nuclear-cytoplasmic fractionation and Western blot for topo IIα; assay type: cell-based; conditions: high-density RPMI-H929 cells, 25 μM, FIG. 13 legend
# T1 construct: effect on the intracellular location of topo IIα in treated MM cells; endogenous in cells; host or cells: human multiple myeloma cells NCI-H929
# Experimental: FIGS. 13(A) and (B) are blots from nuclear (nuc)-cytoplasmic (cyto) fractionation of high-density MM cells (n=2). […] Human myeloma RPMI-H929 cells were treated for 24 hours. Cells were then chemically separated into nuclear and cytoplasmic fractions.
# Human myeloma cells were placed at plateau concentrations (4×10^6 cells/ml), and NES inhibitors were added at 25 μM for 20 hours. Cells were collected, washed in PBS, and fractionated by a method adapted from Li et al. (Li Y, Bor Y C, Misawa Y, Xue Y, Rekosh D, Hammarskjold M L. An intron with a constitutive transport element is retained in a Tap messenger RNA. Nature 2006; 443: 234-7). Separated fractions containing nuclei or precipitated cytosol were dissolved in 2% SDS buffer and assayed by SDS-PAGE Western blot analysis. Blots were probed with an anti-topo IIα Kis1 antibody (Millipore Corp.). […] Cells grown at log-phase concentrations were also fractionated. After MM cells were treated with NCI-9138 at 25 μM for 20 hours, CRM1-topo IIα complexes were isolated from cells by immunoprecipitation using a combination of both protein A and protein G magnetic beads according to the manufacturer's protocol (Miltenyi Biotec, Cologne, Germany). Co-immunoprecipitation was performed with 2 μg of anti-CRM1 antibody (Santa Cruz Biotechnology, Inc., Santa Cruz, Calif.). Immunoprecipitation samples were separated by SDS-PAGE, transferred to nitrocellulose membranes, and probed with anti-topo IIα Kis1 antibody (Millipore, Corp., Billerica, Mass.) and anti-mouse horseradish peroxidase secondary antibody.
# topo IIα [2] = biological target: T1, topo IIα; assay: as above; assay type: cell-based; conditions: RPMI-H929 cells, 100 μM, 24 hours, relative to untreated controls
# [3] = system: high-density MM cells (H929); assay: Cleaved caspase 3 apoptosis assay, sensitization to doxorubicin; conditions: for Sensitization of high-density MM cells to doxorubicin / synergism: 25 μM NES inhibitor, doxorubicin 2 μM; for Fold-Increased sensitization to dox: dox/drug (dox 2 μM) divided by dox alone
# topo IIα [4] = biological target: T1, topo IIα; assay: Immunofluorescence microscopy of intracellular location of topo IIα; assay type: cell-based; conditions: 25 μM NES inhibitor; for Nuclear export of topo IIα by immunofluorescence: 20 hours, high-density (plateau) MM cells; for Fold-increase nuclear topo IIα: H929 cells, nucleus v cytoplasm fluorescence vs untreated high-density controls
# Experimental: Slides were viewed with a fully automated, upright Zeiss Axio-ImagerZ.1 microscope (Carl Zeiss A G, Oberkochen, Germany). Briefly, the DAPI image was used as a mask to segment the nuclear region from the Alexa 594 image. The remaining portion of the Alexa 594 image represents the cytosol, and individual nucleus and cytosol images were analyzed.
# H929 cells were mock treated with 0.1% DMSO in media or with 25 μM of NES inhibitor. The high density control cells, seen in FIG. 9(A) show high levels of topo II staining outside the nucleus, evidencing export of topo II from the nucleus.
# Kg-1a = assay: CT-Glo cytotoxicity assay, Kg-1a cells; assay type: cell-based; conditions: 72-h CT-Glo
# Experimental: (§1) The molecules with the highest docking scores were assayed for IC50 values. Cultures were tested for cytotoxicity using the CellTiter-Glo assay (CT-Glo cytotoxicity assay; Promega, Madison, Wis.), a luminescence-based homogeneous method for determining the number of viable cells in culture based on quantitation of the ATP present, which signals the presence of metabolically active cells (Corsino, et al., A novel class of cyclin-dependent kinase inhibitors identified by molecular docking act through a unique mechanism. J Biol Chem 2009; 284: 29945-55; Homsi, et al., Src activation in melanoma and Src inhibitors as therapeutic agents in melanoma. Melanoma Res 2009; 19: 167-75). All cells were assayed at log-phase growth conditions. Luminescence was measured with a Synergy 4 microplate reader (Bio-Tek Instruments, Inc., Winooski, Vt.). IC50 values were determined using a sigmoidal equilibrium model regression using XLfit version 5.2 (ID Business Solutions Ltd., Surrey, UK) (Corsino, et al., A novel class of cyclin-dependent kinase inhibitors identified by molecular docking act through a unique mechanism. J Biol Chem 2009; 284: 29945-55).
# HL-60 = assay: CT-Glo cytotoxicity assay, HL-60 cells; assay type: cell-based; conditions: 72-h CT-Glo
# Experimental: as §1
# MCF-7 = assay: CT-Glo cytotoxicity assay, MCF-7 cells; assay type: cell-based; conditions: average ± SD
# Experimental: as §1
# SK-UT = assay: CT-Glo cytotoxicity assay, SK-UT cells; assay type: cell-based; conditions: 72-h CT-Glo, average ± SD
# Experimental: as §1
# FLOW = assay: CT-Glo cytotoxicity assay, FLOW cells; assay type: cell-based; conditions: 72-h CT-Glo, average ± SD
# Experimental: as §1
# WI-38 = assay: CT-Glo cytotoxicity assay, WI-38 cells; assay type: cell-based; conditions: 72-h CT-Glo
# Experimental: as §1
# p53 = p53 nuclear export in low-density myeloma cells (nuclear fraction Western blot); assay type: cell-based, human; conditions: H929 at low density (log growth), 25 μM, 20 hours
# Experimental: FIG. 14 is a blot of lead compounds tested to determine if nuclear export inhibition was specific to topo IIα protein. p53 was cycled from the nucleus into the cytoplasm in MM cells cultured at log growth conditions. Cells grown at log-phase concentrations were treated with the lead NES inhibitors (25 μM) or a leptomycin control for 20 hours and chemically fractionated. Nuclei were assayed by SDS-PAGE Western blot analysis for p53 protein (anti-p53 (DO-1), Santa Cruz Biotech, Inc). […] Lamin A/C (anti-lamin A/C, BD Pharmingen) is shown as a loading control.
# Cells grown at low concentrations were treated with the lead NES inhibitors (25 μM) or a leptomycin B (5 nM) control for 20 hours and chemically fractionated. Nuclei were assayed by SDS-PAGE Western blot analysis for p53 protein.
# RPMI-8226 (8226) = assay: CT-Glo cytotoxicity assay, 8226 cells; assay type: cell-based, human; conditions: 8226 cells, 72-h CT-Glo, log-phase (low-density), average ± SD, read-out: IC50
# From the text: (§2) Compounds identified in Example 1 as the top scoring potential inhibitors for each of the two NES (20 each) were obtained from NCI and structures of these molecules confirmed using NMR and mass spectroscopy analysis, seen in FIGS. 4(A)-(C) and 5(A)-(D). The potential inhibitors were followed up using in vitro model cell cultures. MM cell lines NCI-H929 (H929) and RPMI-8226 (8226) were obtained from and tested for authenticity by the American Type Culture Collection (Manassas, Va.). All cell lines were grown as described previously (Turner, et al., Human topoisomerase IIalpha nuclear export is mediated by two CRM-1-dependent nuclear export signals. J Cell Sci 2004; 117: 3061-71).
# as §1
# NCI-H929 (H929) = assay: CT-Glo cytotoxicity assay, H929 cells; assay type: cell-based, human; conditions: average ± SD
# From the text: as §2, §1
# PBMC = assay: CT-Glo cytotoxicity assay, PBMC; assay type: cell-based; conditions: 72-h CT-Glo, average ± SD
# Experimental: as §1
# [5] = for 1 hour; cited from earlier work
# topo IIα [6] = conditions: cited from earlier work
# [7] = in vivo; cited from earlier work
# [8] = Homo sapiens, MCF7, 72-h CT-Glo
# [9] = Homo sapiens, NCI-H929, 72-h CT-Glo
# T1 sequence (P11388 whole entry): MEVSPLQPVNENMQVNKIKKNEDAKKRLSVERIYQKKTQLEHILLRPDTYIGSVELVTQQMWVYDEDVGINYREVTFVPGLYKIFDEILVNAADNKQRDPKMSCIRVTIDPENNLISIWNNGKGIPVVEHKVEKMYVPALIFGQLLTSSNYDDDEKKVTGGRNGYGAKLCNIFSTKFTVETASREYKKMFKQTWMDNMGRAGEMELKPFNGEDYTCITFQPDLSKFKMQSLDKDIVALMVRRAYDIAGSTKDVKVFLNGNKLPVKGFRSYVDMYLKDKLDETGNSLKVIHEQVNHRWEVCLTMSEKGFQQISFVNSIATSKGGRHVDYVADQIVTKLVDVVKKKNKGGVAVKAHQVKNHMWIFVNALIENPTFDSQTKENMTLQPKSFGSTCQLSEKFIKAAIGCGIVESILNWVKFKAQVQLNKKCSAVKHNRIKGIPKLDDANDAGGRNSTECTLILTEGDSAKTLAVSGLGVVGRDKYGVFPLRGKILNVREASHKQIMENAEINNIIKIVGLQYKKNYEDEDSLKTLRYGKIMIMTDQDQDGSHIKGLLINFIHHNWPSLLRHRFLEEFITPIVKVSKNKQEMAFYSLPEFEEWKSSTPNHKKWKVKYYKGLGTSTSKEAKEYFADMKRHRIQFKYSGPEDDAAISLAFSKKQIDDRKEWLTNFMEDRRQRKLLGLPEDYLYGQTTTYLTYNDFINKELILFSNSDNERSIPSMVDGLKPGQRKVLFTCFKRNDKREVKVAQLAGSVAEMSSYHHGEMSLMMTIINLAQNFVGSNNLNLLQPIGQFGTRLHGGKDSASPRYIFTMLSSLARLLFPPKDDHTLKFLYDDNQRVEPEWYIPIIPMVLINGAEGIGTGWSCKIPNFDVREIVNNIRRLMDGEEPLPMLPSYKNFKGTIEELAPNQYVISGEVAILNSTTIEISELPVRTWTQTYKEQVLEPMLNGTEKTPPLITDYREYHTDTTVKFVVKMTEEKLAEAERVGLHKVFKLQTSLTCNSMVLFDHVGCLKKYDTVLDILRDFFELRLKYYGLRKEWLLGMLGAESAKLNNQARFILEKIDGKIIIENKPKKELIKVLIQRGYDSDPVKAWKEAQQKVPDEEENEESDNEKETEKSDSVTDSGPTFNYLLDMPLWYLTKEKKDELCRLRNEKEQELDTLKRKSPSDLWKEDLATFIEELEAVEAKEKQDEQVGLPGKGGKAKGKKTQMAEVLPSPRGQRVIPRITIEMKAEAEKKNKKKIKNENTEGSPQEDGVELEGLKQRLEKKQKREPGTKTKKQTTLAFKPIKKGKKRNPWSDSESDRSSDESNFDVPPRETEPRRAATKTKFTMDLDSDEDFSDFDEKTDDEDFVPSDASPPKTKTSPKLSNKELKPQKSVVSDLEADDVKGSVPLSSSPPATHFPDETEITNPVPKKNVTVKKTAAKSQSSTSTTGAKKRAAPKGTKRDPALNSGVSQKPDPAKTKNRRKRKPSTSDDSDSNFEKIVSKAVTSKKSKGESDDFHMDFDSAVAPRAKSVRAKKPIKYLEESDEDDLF
Compound,"Export of topo IIα, nuclear-cytoplasmic fractionation (topo IIα [1])","Cytoplasmic level / nuclear localization of topo IIα, fractionation Western blot (topo IIα [2])",Sensitization of high-density MM cells to doxorubicin / synergism [3],Nuclear export of topo IIα by immunofluorescence (topo IIα [4]),Fold-Increased sensitization to dox [3] [fold],IC50 (SK-UT) [µM],IC50 (FLOW) [µM],Nuclear export of p53 (p53),further results
"O=C(C[N+]12CN3CN(CN(C3)C1)C2)c1ccc(Br)cc1 [NCI-32237, 1-(4-bromophenyl)-2-(15,3,5,7-tetraazatricyclo[3.3.1.1~3,7~]dec-1-yl)ethanone]",did not affect nuclear export of topo II,did not affect nuclear export of topo II,,,,,,,
"O/N=C(/C[N+]12CN3CN(CN(C3)C1)C2)c1ccc(I)cc1 [NCI-35024, 1-(4-iodophenyl)-2-(15,3,5,7-tetraazatricyclo[3.3.1.1~3,7~]dec-1-yl)ethanone oxime]",,,significantly (p<0.05) sensitize high density MM cells to doxorubicin,prevent nuclear export of Topo IIα,,,,,
"O=C(Nc1ccc(C2=NCCN2)cc1)c1ccc(C(=O)Nc2ccc(C3=NCCN3)cc2)c([N+](=O)[O-])c1 [NCI-35847, N1,N4-bis(4-(4,5-dihydro-1H-imidazol-2-yl)phenyl)-2-(hydroxy(oxido)amino)terephthalamide]",strongly blocked export of topo IIα,reduced cytoplasmic levels of topo IIα equivalent to that produced by the CRM-1 inhibitor ratjadone C,synergized with the topo II inhibitor doxorubicin; also recorded: significantly (p<0.05) sensitize high density MM cells to doxorubicin,prevent nuclear export of Topo IIα; also recorded: overlapping staining of topo II with DAPI,2.65 ± 0.90,55.3,62.8,did not prevent export of p53,IC50 (Kg-1a): 73.8 µM; IC50 (HL-60): 36.5 µM; Fold-increase nuclear topo IIα (topo IIα [4]): 2.81 fold; IC50 (MCF-7; 72-h CT-Glo): 68.5 µM; IC50 (WI-38): 199 µM; IC50 (RPMI-8226 (8226)): 7.2 ± 1.4 µM; IC50 (NCI-H929 (H929); 72-h CT-Glo): 13.9 µM
"O=C(C[N+]12CN3CN(CN(C3)C1)C2)c1ccc2ccccc2c1 [NCI-36400, 1-(2-naphthyl)-2-(15,3,5,7-tetraazatricyclo[3.3.1.1~3,7~]dec-1-yl)ethanone]",,,significantly (p<0.05) sensitize high density MM cells to doxorubicin,prevent nuclear export of Topo IIα,,,,,
"Brc1ccc(C[N+]23CN4CN(CN(C4)C2)C3)cc1 [NCI-80640, 1-(4-bromobenzyl)-15,3,5,7-tetraazatricyclo[3.3.1.1~3,7~]decane]",smaller or little effect on topo II nucleus export inhibition,reduced cytoplasmic levels of topo IIα equivalent to that produced by the CRM-1 inhibitor ratjadone C,synergized with the topo II inhibitor doxorubicin,overlapping staining of topo II with DAPI,2.42 ± 1.09,25.5,35.6,significantly inhibit nuclear export of p53,"IC50 (Kg-1a; Homo sapiens): 15.2 µM; IC50 (HL-60; Homo sapiens): 11.9 µM; IC50 (PBMC): 16.4 µM; IC50 (MCF-7; [8]): 25.9 µM; IC50 (WI-38; Homo sapiens): 56.3 µM; IC50 (RPMI-8226 (8226); Homo sapiens, RPMI-8226): 12 ± 4.2 µM; IC50 (NCI-H929 (H929); [9]): 16.2 µM"
"Clc1cc(Cl)c(C[N+]23CN4CN(CN(C4)C2)C3)cc1Cl [NCI-155877, 1-(2,4,5-trichlorobenzyl)-15,3,5,7-tetraazatricyclo[3.3.1.1~3,7~]decane]",smaller or little effect on topo II nucleus export inhibition,did not significantly reduce the level of cytoplasmic topo IIα,synergized with the topo II inhibitor doxorubicin,overlapping staining of topo II with DAPI,2.82 ± 1.18,50.4,56.8,did not prevent export of p53,"IC50 (Kg-1a; Homo sapiens): 31.4 µM; IC50 (HL-60; Homo sapiens): 20.4 µM; Fold-increase nuclear topo IIα (topo IIα [4]): 3.92 fold; IC50 (PBMC): 37.2 µM; IC50 (MCF-7; [8]): 37.1 µM; IC50 (WI-38; Homo sapiens): 136 µM; IC50 (RPMI-8226 (8226); Homo sapiens, RPMI-8226): 19.5 ± 5.4 µM; IC50 (NCI-H929 (H929); [9]): 33.6 µM"
CCC(=C/[C@H](C)C/C=C/C(C)=C/[C@@H](C)C(=O)[C@@H](C)[C@H](O)[C@@H](C)C/C(C)=C/C(=O)O)/C=C/[C@@H]1OC(=O)C=C[C@@H]1C [leptomycin B],,,,,,,,,Concentration with acute toxicity in vitro [5]: < 5 nmol/L; Export mediated by topo IIα NES site A and site B (topo IIα [6]): blocked; Toxicity in human phase I trial [7]: acute relative toxicities
Ratjadone C [reference compound],prevented nuclear export,,,,,,,,
